According to publication PMC6450673, “Targeted degradation of aberrant tau in frontotemporal dementia patient-derived neuronal cell models” (eLife, 2019):
Several values for one entry are separate records, joined by “and”; a condition that tells them apart may be missing. Identical values can stand only once.

How the values were obtained:
[1] = system: total tau (TAU5) in tau-P301L patient iPSC-derived neurons; experiment: Human total tau ELISA in P301L neurons; type: cell-based
From the text: (§1) Cells from individuals carrying the tau risk variant A152T (c.1407G > A; NCBI RefSeq NM_001123066, rs143624519), the autosomal dominant mutation P301L (c.C1907T; NCBI NM_001123066, rs63751273), or age-matched non-mutant WT tau were employed in this study (Figure 2—source data 1). Dermal fibroblasts from the tau-P301L carrier and the healthy individual were generated from a skin biopsy from subjects within the MGH Frontotemporal Disorders Unit as part of the MGH Neurodegeneration Repository. Approval for human subjects’ work was obtained under a Partners/MGH-approved IRB Protocol (#2010P001611/MGH). Fibroblasts were reprogrammed into iPSCs, which were subsequently converted into cortical-enriched neural progenitor cells (NPCs) and differentiated into neuronal cells as previously described ([Almeida et al., 2012]; [Seo et al., 2017]; [Silva et al., 2016]; [Sheridan et al., 2011]) (Silva MC, Manuscript in preparation, 2019). Briefly, cells were cultured in 6-well (Fisher Scientific Corning, Pittsburgh, PA) or 96-well (Fisher Scientific Corning) plates coated with poly-ornithine (20 μg/mL in water, Sigma, St. Louis, MO) and laminin (5 μg/mL in PBS, Sigma) (POL-coated), in DMEM/F12-B27 media [70% DMEM (Gibco, Carlsbad, CA), 30% Ham’s-F12 (Fisher Scientific Corning), 2% B27 (Gibco), 1% penicillin-streptomycin (Gibco)]. Media was supplemented with EGF (20 ng/mL, Sigma), FGF (20 ng/mL, Stemgent, Cambridge, MA) and heparin (5 μg/mL, Sigma), to promote NPC proliferation and expansion. The growth factors were withdrawn to promote neural differentiation for 6 to 8 weeks, with half media change two times per week. Cell lines’ identity was authenticated by SANGER sequencing, karyotyping and ACGH analysis at different stages of culture maintenance from iPSC to NPC. All working cell lines tested negative for mycoplasma contamination.
(§2) Compound treatment in six-well plates was performed in 2 mL media volume by removing 1 mL of conditioned media from the culture and adding 1 mL of new media pre-mixed with the compound at the appropriate 2X concentration, followed by incubation at 37°C for the designated period of time. Compound treatment in 96-well plates was performed in 100 μL media volume by adding compound directly to each well, followed by incubation at 37°C. When testing the effect of drug pre-treatment, the first compound was added as described above for the period of time needed, and then QC-01–175 was added directly onto the media without media exchange.
(§3) Neuronal cells differentiated in six-well plate format for 6 weeks, were collected as described for western blotting, and lysed in ELISA-compatible buffer (Invitrogen FNN0011), supplemented with 1 mM PMSF, protease (Roche) and phosphatase (Sigma) inhibitors cocktails, for 30 min on ice with quick vortexing. Lysates were clarified by centrifugation at 13,000 rpm at 4°C for 10 min. The clear lysates were then transferred to new microfuge tubes and total protein concentration was quantified with the Pierce BCA Protein Assay Kit (ThermoFisher Scientific). ELISA assays were performed according to manufacturer instructions: Human Total Tau ELISA (Invitrogen Kit KHB0041/KHB0042) and P-Tau[pS396] Human ELISA Kit (Invitrogen Kit KHB7031). Data was plotted using GraphPad Prism version 8.0.

[2] = system: P-tau S396 in tau-P301L patient iPSC-derived neurons; experiment: P-Tau[pS396] ELISA in P301L neurons; type: cell-based, human; settings: for S396 P-Tau (ELISA, relative to vehicle-treated): 24 h, replicate values
From the text: as §1, §2, §3

[3] = target: T1, total tau (TAU5) in non-mutant control iPSC-derived neurons (Homo sapiens, UniProt P10636); experiment: Human total tau ELISA in control neurons 1-3; type: cell-based; settings: for TAU5 (total tau by ELISA, relative to vehicle-treated): replicate values
T1 construct: modeling pathogenic tau species without the need for overexpression of heterologous genes; endogenous in cells; host or cells: 8330-8-RC1, MGH2069-RC1, CTR2-L17-RC2 human iPSC-derived neurons
T1 sequence (P10636 1-441 isoform P10636-8, stated change not applied): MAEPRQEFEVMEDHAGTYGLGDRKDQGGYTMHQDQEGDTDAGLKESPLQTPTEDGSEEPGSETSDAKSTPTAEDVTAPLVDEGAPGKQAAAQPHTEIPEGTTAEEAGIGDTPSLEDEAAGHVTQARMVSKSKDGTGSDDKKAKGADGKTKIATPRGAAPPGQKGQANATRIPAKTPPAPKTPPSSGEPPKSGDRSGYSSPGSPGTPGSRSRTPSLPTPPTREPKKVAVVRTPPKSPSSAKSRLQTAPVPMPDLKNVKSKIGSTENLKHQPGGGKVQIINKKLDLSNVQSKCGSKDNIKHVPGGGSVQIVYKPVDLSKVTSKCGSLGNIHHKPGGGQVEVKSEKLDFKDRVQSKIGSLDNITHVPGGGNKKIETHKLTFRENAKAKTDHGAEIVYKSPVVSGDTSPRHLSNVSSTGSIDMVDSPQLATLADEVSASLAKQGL
From the text: as §1, §2, §3

O=C(CCc1ccc2c(c1)[nH]c1ccncc12)NCCOCCOCCNc1cccc2c1C(=O)N(C1CCC(=O)NC1=O)C2=O (stereo not drawn) [QC-01–175] was tested, and the “clearance of tau, on average” value ([1]; P301L heterozygous neurons) was greater than 60%, the “Dmax, 4h, total tau” value ([1]; P301L neurons, ELISA, 4 hr, at 100 nM) was 80% and the “Dmax, 24h, total tau” value ([1]; P301L neurons, ELISA, 24 hr, achieved at 1 μM) was 60%. For the same compound, the “S396 P-Tau (ELISA, relative to vehicle-treated)” value ([2]; 0.001 μM compound) was 0.69 and 1.00 and 0.62 and 0.70 and 0.58 and 0.77 (2×) and 0.75 and 0.89 and 0.79 and 0.65 and 0.90, the “S396 P-Tau (ELISA, relative to vehicle-treated)” value ([2]; 0.01 μM compound) was 0.69 and 0.67 and 0.61 and 0.70 and 0.98 and 0.73 and 0.71 and 0.65 and 0.75 and 0.62 and 0.97 and 0.81 and the “S396 P-Tau (ELISA, relative to vehicle-treated)” value ([2]; 0.05 μM compound) was 0.43 and 0.42 (2×) and 0.38 and 0.44 and 0.36 (2×) and 0.41 and 0.40 and 0.34 and 0.39 and 0.71. The “S396 P-Tau (ELISA, relative to vehicle-treated)” value ([2]; 0.1 μM compound) was 0.43 (3×) and 0.41 and 0.38 and 0.36 (2×) and 0.42 and 0.39 and 0.44 (2×) and 0.34, the “S396 P-Tau (ELISA, relative to vehicle-treated)” value ([2]; 0.5 μM compound) was 0.32 (2×) and 0.31 (3×) and 0.28 and 0.27 and 0.34 and 0.33 and 0.35 and 0.29 and 0.23 and the “S396 P-Tau (ELISA, relative to vehicle-treated)” value ([2]; 1 μM compound) was 0.34 (2×) and 0.33 (3×) and 0.30 (2×) and 0.35 (2×) and 0.29 (2×) and 0.49. For the same compound, the “S396 P-Tau (ELISA, relative to vehicle-treated)” value ([2]; 10 μM compound) was 0.76 and 0.74 and 0.68 (2×) and 0.77 and 0.64 and 0.67 and 0.65 and 0.59 and 0.73 and 0.41 and 0.38, the “Dmax, 4h, P-tau S396” value ([2]; ELISA, 4 hr, at 500 nM) was 80% and the “Dmax, 24h, P-tau S396” value ([2]; ELISA, 24 hr, achieved at 1 μM) was 60%. The “TAU5 (total tau by ELISA, relative to vehicle-treated)” value ([3]; Control 1, 8330-8-RC1, 24h, 0.001 μM) was 1.03 and 0.98 and 1.20 and 1.01, the “TAU5 (total tau by ELISA, relative to vehicle-treated)” value ([3]; Control 1, 8330-8-RC1, 24h, 0.01 μM) was 0.91 and 0.87 and 0.97 and 1.00 and the “TAU5 (total tau by ELISA, relative to vehicle-treated)” value ([3]; Control 1, 8330-8-RC1, 24h, 0.1 μM) was 0.93 and 1.07 and 0.97 and 0.84. The “TAU5 (total tau by ELISA, relative to vehicle-treated)” value ([3]; Control 1, 8330-8-RC1, 24h, 1 μM) was 0.99 and 0.94 and 0.95 and 0.71, the “TAU5 (total tau by ELISA, relative to vehicle-treated)” value ([3]; Control 1, 8330-8-RC1, 24h, 10 μM) was 0.74 and 1.00 and 0.91 and 0.86 and the “TAU5 (total tau by ELISA, relative to vehicle-treated)” value ([3]; Control 2, MGH2069-RC1, 24h, 0.001 μM) was 0.91 and 0.93 and 1.00 and 1.15. The “TAU5 (total tau by ELISA, relative to vehicle-treated)” value ([3]; Control 2, MGH2069-RC1, 24h, 0.01 μM) was 0.82 and 0.85 and 0.89 and 0.99, the “TAU5 (total tau by ELISA, relative to vehicle-treated)” value ([3]; Control 2, MGH2069-RC1, 24h, 0.1 μM) was 0.76 and 0.78 and 0.92 and 0.71 and the “TAU5 (total tau by ELISA, relative to vehicle-treated)” value ([3]; Control 2, MGH2069-RC1, 24h, 1 μM) was 0.87 and 0.89 and 0.98 and 0.78. For the same compound, the “TAU5 (total tau by ELISA, relative to vehicle-treated)” value ([3]; Control 2, MGH2069-RC1, 24h, 10 μM) was 0.71 and 0.83 and 0.74 and 0.76, the “TAU5 (total tau by ELISA, relative to vehicle-treated)” value ([3]; Control 3, CTR2-L17-RC2, 24h, 0.001 μM) was 1.10 and 1.07 and 0.99 and 1.31 and the “TAU5 (total tau by ELISA, relative to vehicle-treated)” value ([3]; Control 3, CTR2-L17-RC2, 24h, 0.01 μM) was 0.96 and 1.12 and 1.00 and 0.90. For the same compound, the “TAU5 (total tau by ELISA, relative to vehicle-treated)” value ([3]; Control 3, CTR2-L17-RC2, 24h, 0.1 μM) was 1.08 and 0.96 and 0.93 and 1.00, the “TAU5 (total tau by ELISA, relative to vehicle-treated)” value ([3]; Control 3, CTR2-L17-RC2, 24h, 1 μM) was 0.91 and 0.81 and 0.71 and 0.95 and the “TAU5 (total tau by ELISA, relative to vehicle-treated)” value ([3]; Control 3, CTR2-L17-RC2, 24h, 10 μM) was 0.93 and 0.83 and 1.17 and 0.95. The degradation of tau ([3]; all three control neurons, ELISA, 24 hr, concentrations up to 1 μM) was “No significant degradation”, the “degradation of total tau” value ([3]; control line 1, 10 μM, 24 hr) was ~ 20% and the “degradation of total tau” value ([3]; control line 2, 10 μM, 24 hr) was ~ 20%.
